According to patent publication US4593093A, “Acyl derivatives” (priority 1980, dated 1986):
Structures can show the parent of a compound that is named as a salt. Where two headings read alike, the source gives them in different places.

Assays:
Serratia marcescens [1] = assay: Activity in vitro: minimum inhibitory concentration; format: cell-based
Escherichia coli [2] = assay: as above; format: cell-based
Enterobacter aerogenes = assay: as above; format: cell-based; settings: Klebsiella aerogenes
Proteus vulgaris = assay: as above; format: cell-based
Klebsiella pneumoniae = assay: Activity in vivo: survival of intraperitoneally infected mice; settings: sc, 96 h; mice infected i.p. with Klebsiella pneumoniae; s.c. twice, 1 h and 3 h after infection; survival on 4th day; read-out: CD50 (dosage at which 50% of the animals survive)
Description: (§1) Groups of 5 mice are infected intraperitoneally with an aqueous suspension of various pathogens. The test substance in physiological sodium chloride solution is administered subcutaneously twice, i.e. 1 hour and 3 hours after the infection. The number of surviving animals is determined on the 4th day. Various dosages are administered and that dosage at which 50% of the experimental animals survive (CD50, mg/kg) is determined by interpolation.

Serratia marcescens [3] = assay: as above; settings: sc, 96 h, 1 h and 3 h after infection, survival on 4th day, read-out: CD50 (dosage at which 50% of the animals survive)
Description: as §1

Streptococcus pyogenes [4] = assay: as above; settings: sc, 96 h; mice infected i.p. with Streptococcus pyogenes; s.c. twice, 1 h and 3 h after infection; survival on 4th day; read-out: CD50 (dosage at which 50% of the animals survive)
Description: as §1

Haemophilus influenzae = assay: as above; settings: sc, 96 h; mice infected i.p. with Haemophilus influenzae; s.c. twice, 1 h and 3 h after infection; survival on 4th day; read-out: CD50 (dosage at which 50% of the animals survive)
Description: as §1

Escherichia coli [5] = assay: as above; settings: sc, 96 h; mice infected i.p. with Escherichia coli; s.c. twice, 1 h and 3 h after infection; survival on 4th day; read-out: CD50 (dosage at which 50% of the animals survive)
Description: as §1

Enterobacter cloacae [6] = assay: as above; settings: sc, 96 h; mice infected i.p. with Enterobacter cloacae; s.c. twice, 1 h and 3 h after infection; survival on 4th day; read-out: CD50 (dosage at which 50% of the animals survive)
Description: as §1

Neisseria moningitidis = assay: as above; settings: sc, 96 h; mice infected i.p. with Neisseria moningitidis; s.c. twice, 1 h and 4 h after infection; survival on 4th day; read-out: CD50 (dosage at which 50% of the animals survive)
Description: as §1
**Administered subcutaneously twice: 1 hour and 4 hours after the […]

Streptococcus viridans = assay: Activity in vitro: minimum inhibitory concentration; format: cell-based
Streptococcus pneumoniae = assay: as above; format: cell-based
Proteus rettgeri = assay: as above; format: cell-based; settings: Providencia rettgeri
Staphylococcus epidermis = assay: as above; format: cell-based
Toxicity, LD50 = settings: in vivo
Citrobacter freundii = assay: Activity in vitro: minimum inhibitory concentration; format: cell-based
Staphylococcus aureus [7] = assay: as above; format: cell-based
Pseudomonas aeruginosa [8] = assay: Activity in vivo: survival of intraperitoneally infected mice; settings: sc, 96 h; mice infected i.p. with Pseudomonas aeruginosa; s.c. three times, 1 h, 3 h and 5 h after infection; survival on 4th day; read-out: CD50 (dosage at which 50% of the animals survive)
Description: as §1
*Administered subcutaneously three times: 1 hour, 3 hours and 5 hours

Streptococcus faecalis = assay: Activity in vitro: minimum inhibitory concentration; format: cell-based; settings: Enterococcus faecalis
Proteus inconstans = assay: as above; format: cell-based; settings: Providencia alcalifaciens
Proteus mirabilis = assay: as above; format: cell-based
Pseudomonas aeruginosa [9] = assay: as above; format: cell-based
Enterobacter cloacae [10] = assay: as above; format: cell-based
Proteus morganii = assay: as above; format: cell-based; settings: Morganella morganii
Klebsiella pseumoniae = assay: as above; format: cell-based
Streptococcus pyogenes [11] = assay: as above; format: cell-based
Staphylococcus aureus [12] = assay: Activity in vivo: survival of intraperitoneally infected mice; settings: sc, 96 h; mice infected i.p. with Staphylococcus aureus; s.c. twice, 1 h and 3 h after infection; survival on 4th day; read-out: CD50 (dosage at which 50% of the animals survive)
Description: as §1

[13] = Enterobacter aerogenes strain 1
[14] = Enterobacter aerogenes strain 2
[15] = mice infected i.p. with Serratia marcescens strain 1, s.c. twice
[16] = Streptococcus faecalis strain 1
[17] = Streptococcus faecalis strain 2
[18] = Pseudomonas aeruginosa strain 1
[19] = Pseudomonas aeruginosa strain 3
[20] = Streptococcus pyogenes strain 1, read-out: Minimum inhibitory concentration
[21] = Streptococcus pyogenes strain 2, read-out: Minimum inhibitory concentration

CO/N=C(\C(=O)N[C@@H]1C(=O)N2C(C(=O)O)=C(CSc3nc(=O)c(O)nn3C)CS[C@H]12)c1c[se]c(N)n1 [Product C, (6R, 7R)-7-[2-(2-amino-4-selenazolyl)-2-[(Z)-methoxyimino]-acetamido]-3-[[(2,5-dihydro-6-hydroxy-2-methyl-5-oxo-as-triazin-3-yl)thio]methyl]-8-oxo-5-thia-1-azabicyclo[4.2.0]oct-2-ene-2-carboxylic acid disodium salt]
MIC (Serratia marcescens [1]; Serratia marcescens strain 1): 0.4 µg/mL
MIC (Serratia marcescens [1]; Serratia marcescens strain 2): 1.6 µg/mL
MIC (Serratia marcescens [1]; Serratia marcescens strain 3): 0.1 µg/mL
MIC (Escherichia coli [2]; Escherichia coli strain 1): 0.1 µg/mL
MIC (Escherichia coli [2]; Escherichia coli strain 2): 0.05 µg/mL
MIC (Escherichia coli [2]; Escherichia coli strain 3): 0.8 µg/mL
MIC (Escherichia coli [2]; Escherichia coli strain 4): 0.4 µg/mL
MIC (Escherichia coli [2]; Escherichia coli strain 5): 0.2 µg/mL
MIC (Enterobacter aerogenes; [13]): 0.1 µg/mL
MIC (Enterobacter aerogenes; [14]): 0.1 µg/mL
MIC (Proteus vulgaris): 1.6 µg/mL
ED50 (Klebsiella pneumoniae): 0.23 mg/kg
ED50 (Serratia marcescens [3]; [15]): 0.07 mg/kg
ED50 (Streptococcus pyogenes [4]): 0.04 mg/kg
ED50 (Haemophilus influenzae): < 0.05 mg/kg
ED50 (Escherichia coli [5]): < 0.003 mg/kg
ED50 (Enterobacter cloacae [6]): 17 mg/kg
ED50 (Neisseria moningitidis): < 0.05 mg/kg
MIC (Streptococcus viridans): 3.1 µg/mL
MIC (Streptococcus pneumoniae): 0.05 µg/mL
MIC (Proteus rettgeri): 0.1 µg/mL
MIC (Staphylococcus epidermis): 3.1 µg/mL
LD50 (Toxicity, LD50; po): > 5000 mg/kg
LD50 (Toxicity, LD50; sc): > 4000 mg/kg
MIC (Citrobacter freundii; Citrobacter freundii strain 1): 12.5 µg/mL
MIC (Citrobacter freundii; Citrobacter freundii strain 2): 0.1 µg/mL
MIC (Staphylococcus aureus [7]; Staphylococcus aureus strain 1): 3.1 µg/mL
MIC (Staphylococcus aureus [7]; Staphylococcus aureus strain 2): 6.3 µg/mL
MIC (Staphylococcus aureus [7]; Staphylococcus aureus strain 3): 3.1 µg/mL
MIC (Staphylococcus aureus [7]; Staphylococcus aureus strain 4): 6.3 µg/mL
ED50 (Pseudomonas aeruginosa [8]): 14 mg/kg
MIC (Streptococcus faecalis; [16]): > 100 µg/mL
MIC (Streptococcus faecalis; [17]): > 100 µg/mL
MIC (Proteus inconstans): 0.006 µg/mL
MIC (Proteus mirabilis; Proteus mirabilis strain 1): 0.012 µg/mL
MIC (Proteus mirabilis; Proteus mirabilis strain 2): 0.025 µg/mL
MIC (Proteus mirabilis; Proteus mirabilis strain 3): 1.6 µg/mL
MIC (Proteus mirabilis; Proteus mirabilis strain 4): 0.012 µg/mL
MIC (Proteus mirabilis; Proteus mirabilis strain 5): 0.012 µg/mL
MIC (Pseudomonas aeruginosa [9]; [18]): 3.1 µg/mL
MIC (Pseudomonas aeruginosa [9]; Pseudomonas aeruginosa strain 2): 6.3 µg/mL
MIC (Pseudomonas aeruginosa [9]; [19]): 1.6 µg/mL
MIC (Enterobacter cloacae [10]; Enterobacter cloacae strain 1): > 100 µg/mL
MIC (Enterobacter cloacae [10]; Enterobacter cloacae strain 2): 3.1 µg/mL
MIC (Enterobacter cloacae [10]; Enterobacter cloacae strain 3): > 100 µg/mL
MIC (Proteus morganii): 0.05 µg/mL
MIC (Klebsiella pseumoniae; Klebsiella pseumoniae strain 1): 0.1 µg/mL
MIC (Klebsiella pseumoniae; Klebsiella pseumoniae strain 2): 0.05 µg/mL
MIC (Klebsiella pseumoniae; Klebsiella pseumoniae strain 3): 0.1 µg/mL
MIC (Streptococcus pyogenes [11]; [20]): 0.05 µg/mL
MIC (Streptococcus pyogenes [11]; [21]): ≤ 0.012 µg/mL

CC1=C(C(=O)[O-])N2C(=O)[C@@H](NC(=O)/C(=N\O)c3c[se]c(N)n3)[C@H]2SC1.[Na+] [Product M, (6R, 7R)-7-[2-[2-amino-4-selenazolyl]-2-[(Z)-hydroxyimino]-acetamido]-3-methyl-8-oxo-5-thia-1-azabicyclo[4.2.0]oct-2-ene-2-carboxylic acid sodium salt]
MIC (Serratia marcescens [1]; Serratia marcescens strain 1): 25 µg/mL
MIC (Serratia marcescens [1]; Serratia marcescens strain 2): 100 µg/mL
MIC (Serratia marcescens [1]; Serratia marcescens strain 3): 6.3 µg/mL
MIC (Escherichia coli [2]; Escherichia coli strain 1): 0.8 µg/mL
MIC (Escherichia coli [2]; Escherichia coli strain 2): 0.4 µg/mL
MIC (Escherichia coli [2]; Escherichia coli strain 3): 50 µg/mL
MIC (Escherichia coli [2]; Escherichia coli strain 4): 200 µg/mL
MIC (Escherichia coli [2]; Escherichia coli strain 5): 3.1 µg/mL
MIC (Enterobacter aerogenes; [13]): 0.4 µg/mL
MIC (Enterobacter aerogenes; [14]): 1.6 µg/mL
ED50 (Serratia marcescens [3]; [15]): 3.5 mg/kg
ED50 (Serratia marcescens [3]; mice infected i.p. with Serratia marcescens strain 2, s.c. twice): > 50 mg/kg
ED50 (Streptococcus pyogenes [4]): 0.28 mg/kg
ED50 (Escherichia coli [5]): 1 mg/kg
ED50 (Staphylococcus aureus [12]): 2.7 mg/kg
MIC (Streptococcus viridans): 25 µg/mL
MIC (Streptococcus pneumoniae): 6.3 µg/mL
MIC (Proteus rettgeri): 0.2 µg/mL
MIC (Staphylococcus epidermis): 3.1 µg/mL
MIC (Citrobacter freundii; Citrobacter freundii strain 1): 100 µg/mL
MIC (Citrobacter freundii; Citrobacter freundii strain 2): 1.6 µg/mL
MIC (Staphylococcus aureus [7]; Staphylococcus aureus strain 1): 3.1 µg/mL
MIC (Staphylococcus aureus [7]; Staphylococcus aureus strain 2): 6.3 µg/mL
MIC (Staphylococcus aureus [7]; Staphylococcus aureus strain 3): 3.1 µg/mL
MIC (Staphylococcus aureus [7]; Staphylococcus aureus strain 4): 6.3 µg/mL
MIC (Streptococcus faecalis; [16]): 200 µg/mL
MIC (Streptococcus faecalis; [17]): > 200 µg/mL
MIC (Proteus inconstans): 0.05 µg/mL
MIC (Proteus mirabilis; Proteus mirabilis strain 3): 0.8 µg/mL
MIC (Proteus mirabilis; Proteus mirabilis strain 4): 6.3 µg/mL
MIC (Proteus mirabilis; Proteus mirabilis strain 5): 1.6 µg/mL
MIC (Pseudomonas aeruginosa [9]; [18]): > 400 µg/mL
MIC (Pseudomonas aeruginosa [9]; [19]): > 400 µg/mL
MIC (Enterobacter cloacae [10]; Enterobacter cloacae strain 1): > 200 µg/mL
MIC (Enterobacter cloacae [10]; Enterobacter cloacae strain 2): > 200 µg/mL
MIC (Enterobacter cloacae [10]; Enterobacter cloacae strain 3): > 200 µg/mL
MIC (Proteus morganii): 100 µg/mL
MIC (Klebsiella pseumoniae; Klebsiella pseumoniae strain 1): 0.8 µg/mL
MIC (Klebsiella pseumoniae; Klebsiella pseumoniae strain 2): 0.4 µg/mL
MIC (Klebsiella pseumoniae; Klebsiella pseumoniae strain 3): 0.4 µg/mL
MIC (Streptococcus pyogenes [11]; [20]): 1.6 µg/mL
MIC (Streptococcus pyogenes [11]; [21]): 0.1 µg/mL

CO/N=C(\C(=O)N[C@@H]1C(=O)N2C(C(=O)OCOC(=O)C(C)(C)C)=C(C)CS[C@H]12)c1c[se]c(N)n1 [Product H, Methylene (6R, 7R)-7-[2-(2-amino-4-selenazolyl)-2-[(Z)-methoxyimino]-acetamido]-3-methyl-8-oxo-5-thia-1-azabicyclo[4.2.0]oct-2-ene-2-carboxylate pivalate]
ED50 (Klebsiella pneumoniae): 0.44 mg/kg
ED50 (Streptococcus pyogenes [4]): 0.13 mg/kg
ED50 (Escherichia coli [5]): 0.11 mg/kg
ED50 (Staphylococcus aureus [12]): > 12 mg/kg
LD50 (Toxicity, LD50; po): > 5000 mg/kg
ED50 (Pseudomonas aeruginosa [8]): > 100 mg/kg
